# Assay results: patent US11938200B2, “Non-nutritive sweeteners and polyols as imaging agents” (THE TRUSTEES OF THE UNIVERSITY OF PENNSYLVANIA, priority 2016, dated 2024)
# Columns and labels:
# mouse tumors = test: CEST MRI of tumor-bearing animals before and after sucralose injection; type: in vivo; conditions: tumor region; sucralose 100 mM intra peritoneally; at 40 minutes; vs baseline
# Protocol: (§1) Different concentration of Splenda and sucralose were prepared in PBS and all the experiments were performed at 37° C. on a 9.4 T horizontal bore small animal MR scanner (Varian, Palo Alto, CA). CEST images were acquired at different saturation power and saturation lengths from frequency offset −5 to 5 ppm in step size of 0.1 ppm. Acquired CEST images were corrected for B0 and used to generate CEST contrast map using Equation [1].
# (§2) [formula] where S−ve and S+ve are the B0 corrected MRI signals obtained at −1 ppm and +1 ppm respectively, and S0 is the image obtained without any saturation. CEST contrast was further corrected for B1 and mapped as false-colors onto anatomical proton image. The CEST asymmetry plots were generated by plotting the relative water signal difference at frequency offset from 0 to 4.8 ppm. • FIG. 1: Z-spectra (A), asymmetry plot (B), and CEST map (C) of CEST effect from 0.5% Splenda. […]
# (§3) Imaging was performed in tumor-bearing animals at a 9.4 T horizontal bore Varian system. […] Respiration and body temperature were continuously monitored using a MRI-compatible small animal monitor system (SA Instruments, Inc., Stony Brook, NY). CEST imaging was performed using a custom-programmed, segmented radiofrequency GRE readout pulse sequence, with a frequency selective continuous wave saturation preparation pulse. […]
# rat brain tumor = test: SWEETEST (CEST) MRI, sucralose injection studies in a rat brain tumor; type: in vivo; conditions: sucralose 300 mM via tail vein, 40 minute post injection, vs baseline
# Protocol: as §1, §2, §3
smiles,measurement,setting,value
OC[C@H]1O[C@H](O[C@]2(CCl)O[C@H](CCl)[C@@H](O)[C@@H]2O)[C@H](O)[C@@H](O)[C@H]1Cl [sucralose],percent change in the contrast post injection of sucralose,mouse tumors,about 100%
same,increase in SWEETEST contrast,rat brain tumor,~80%
